Reference: paper PMC6366416, “Synthesis and in vitro anticancer activity of certain novel 1-(2-methyl-6-arylpyridin-3-yl)-3-phenylureas as apoptosis-inducing agents” (Journal of Enzyme Inhibition and Medicinal Chemistry, 2019)

Experiments:
HCT-116 cell line = assay: MTT anti-proliferative assay; assay type: cell-based; conditions: Homo sapiens, 48 h of incubation, mean ± SD of three experiments
Procedure: (§1) A549 (non-small cell lung cancer cell line) and HCT-116 (human colon cancer cell line), were obtained from American Type Culture Collection (Manassas, VA, USA). The cells were maintained in Dulbecco’s Modified Eagle’s Medium (DMEM) (Sigma-Aldrich, St. Louis, MO), and supplemented with 10% heat-inactivated FBS (Hyclone), 10 μg/mL of insulin (Manufacturer, Sigma, St. Louis, MO, USA), and 1% penicillin-streptomycin. MTT assay[29] was adopted to assess the in vitro antitumor activity of the newly synthesized pyridines 5a–l according to the reported procedures, using Doxorubicin as a standard treatment. Experimental conditions were tested using three replicates (three wells of the 96-well plate per experimental condition) and all experiments were carried out in triplicates. IC50 values were calculated by the use of the equation for Boltzman sigmoidal concentration–response curve using the nonlinear regression fitting models by Graph Pad, Prism version 5 (GraphPad Software Inc., La Jolla, CA).
(§2) All newly synthesized pyridines 5a–l were examined for their anti-proliferative activity towards two cancer cell lines: non-small cell lung cancer A549 cell line and colon cancer HCT-116 cell line. The MTT colorimetric assay was adopted to assess the anti-proliferative activity as described by Mosmann[29]. Doxorubicin was used as a control in this assay.

A549 cell line = assay: MTT anti-proliferative assay; assay type: cell-based; conditions: Homo sapiens, 48 h of incubation, mean ± SD of three experiments
Procedure: as §1, §2

WI-38 cell line = assay: MTT cytotoxicity towards non-tumorigenic cells; assay type: cell-based, human; conditions: for IC50: WI-38, MTT, non-tumorigenic human lung fibroblast, mean ± SD of three experiments; for S. I. WI-38/A549: selectivity index, IC50 WI-38 / IC50 A549
Procedure: The cytotoxic activity of all synthesized pyridines 5a–l were assessed against non-tumorigenic human lung fibroblast WI-38 cell line to investigate their safety, using the MTT colorimetric assay.

UACC-257 = assay: NCI one-dose SRB growth inhibition; assay type: cell-based; conditions: Homo sapiens, UACC-257, read-out: GI% UACC-257, Melanoma, 48 h
Procedure: (§3) The antitumor assay was performed according to the protocol of the Drug Evaluation Branch, NCI, Bethesda[24–26]. A 48 h drug exposure protocol was adopted, and sulforhodamine B (SRB) assay[27] was utilized to assess the cell growth and viability, as reported earlier[17]^,[28].
(§4) The structures of all the newly synthesized pyridines 5a–l were submitted to the National Cancer Institute (NCI) Developmental Therapeutic Program (www.dtp.nci.nih.gov). […] Nine different types of cancer were tested in this assay: colon, ovarian, prostate, leukemia, melanoma, CNS, renal, breast and lung cancers. A 48 h drug exposure protocol was adopted, and sulforhodamine B (SRB) assay[27] was utilized to assess the cell growth and viability.

NCI/ADR-RES = assay: NCI one-dose SRB growth inhibition; assay type: cell-based; conditions: Homo sapiens, Ovarian Cancer, 48 h, read-out: GI% NCI/ADR-RES
Procedure: as §3, §4

TK-10 = assay: NCI one-dose SRB growth inhibition; assay type: cell-based; conditions: Homo sapiens, Renal Cancer, 48 h, read-out: GI% TK-10
Procedure: as §3, §4

SK-MEL-5 = assay: NCI one-dose SRB growth inhibition; assay type: cell-based; conditions: Homo sapiens, Melanoma, 48 h, read-out: GI% SK-MEL-5
Procedure: as §3, §4

MCF7 = assay: NCI one-dose SRB growth inhibition; assay type: cell-based; conditions: Homo sapiens, Breast Cancer, 48 h, read-out: GI% MCF7
Procedure: as §3, §4

SK-OV-3 = assay: NCI one-dose SRB growth inhibition; assay type: cell-based; conditions: Homo sapiens, Ovarian Cancer, 48 h, read-out: GI% SK-OV-3
Procedure: as §3, §4

COLO 205 = assay: NCI one-dose SRB growth inhibition; assay type: cell-based; conditions: Homo sapiens, Colon Cancer, 48 h, read-out: GI% COLO 205
Procedure: as §3, §4

MDA-MB-435 = assay: NCI one-dose SRB growth inhibition; assay type: cell-based; conditions: Homo sapiens, Melanoma, 48 h, read-out: GI% MDA-MB-435
Procedure: as §3, §4

BT-549 = assay: NCI one-dose SRB growth inhibition; assay type: cell-based; conditions: Homo sapiens, Breast Cancer, 48 h, read-out: GI% BT-549
Procedure: as §3, §4

HOP-92 = assay: NCI one-dose SRB growth inhibition; assay type: cell-based; conditions: Homo sapiens, Non-Small Cell Lung Cancer, 48 h, read-out: GI% HOP-92
Procedure: as §3, §4

SN12C = assay: NCI one-dose SRB growth inhibition; assay type: cell-based; conditions: Homo sapiens, Renal Cancer, 48 h, read-out: GI% SN12C
Procedure: as §3, §4

SK-MEL-28 = assay: NCI one-dose SRB growth inhibition; assay type: cell-based; conditions: Homo sapiens, Melanoma, 48 h, read-out: GI% SK-MEL-28
Procedure: as §3, §4

SF-295 = assay: NCI one-dose SRB growth inhibition; assay type: cell-based; conditions: Homo sapiens, CNS Cancer, 48 h, read-out: GI% SF-295
Procedure: as §3, §4

OVCAR-3 = assay: NCI one-dose SRB growth inhibition; assay type: cell-based; conditions: Homo sapiens, OVCAR-3, 48 h, Ovarian Cancer, read-out: GI% OVCAR-3
Procedure: as §3, §4

MDA-MB-468 = assay: NCI one-dose SRB growth inhibition; assay type: cell-based; conditions: Homo sapiens, Breast Cancer, 48 h, read-out: GI% MDA-MB-468
Procedure: as §3, §4

OVCAR-8 = assay: NCI one-dose SRB growth inhibition; assay type: cell-based; conditions: Homo sapiens, Ovarian Cancer, 48 h, read-out: GI% OVCAR-8
Procedure: as §3, §4

RXF 393 = assay: NCI one-dose SRB growth inhibition; assay type: cell-based; conditions: Homo sapiens, Renal Cancer, 48 h, read-out: GI% RXF 393
Procedure: as §3, §4

U251 = assay: NCI one-dose SRB growth inhibition; assay type: cell-based; conditions: Homo sapiens, U-251, CNS Cancer, 48 h, read-out: GI% U251
Procedure: as §3, §4

SW-620 = assay: NCI one-dose SRB growth inhibition; assay type: cell-based; conditions: Homo sapiens, Colon Cancer, 48 h, read-out: GI% SW-620
Procedure: as §3, §4

SNB-19 = assay: NCI one-dose SRB growth inhibition; assay type: cell-based; conditions: Homo sapiens, CNS Cancer, 48 h, read-out: GI% SNB-19
Procedure: as §3, §4

RPMI-8226 = assay: NCI one-dose SRB growth inhibition; assay type: cell-based; conditions: Homo sapiens, RPMI-8226, 48 h, Leukemia, read-out: GI% RPMI-8226
Procedure: as §3, §4

KM12 = assay: NCI one-dose SRB growth inhibition; assay type: cell-based; conditions: Homo sapiens, Colon Cancer, 48 h, read-out: GI% KM12
Procedure: as §3, §4

[1] = system: 60 cancer cell lines (NCI, USA); assay: NCI one-dose SRB assay, whole panel; assay type: cell-based, human; conditions: 10 μM; for Sensitive cell lines no.: cell lines with GI% higher than 10%
Procedure: as §3, §4

Row | SMILES | IC50 (HCT-116 cell line) [µM] | IC50 (A549 cell line) [µM] | IC50 (WI-38 cell line) [µM] | S. I. WI-38/A549 (WI-38 cell line) | melting point [°C] | inhibition at 10 µM (UACC-257) [%] | inhibition at 10 µM (NCI/ADR-RES) [%] | inhibition at 10 µM (TK-10) [%] | inhibition at 10 µM (SK-MEL-5) [%] | inhibition at 10 µM (MCF7) [%] | inhibition at 10 µM (SK-OV-3) [%] | inhibition at 10 µM (COLO 205) [%] | inhibition at 10 µM (MDA-MB-435) [%] | inhibition at 10 µM (BT-549) [%] | inhibition at 10 µM (HOP-92) [%] | inhibition at 10 µM (SN12C) [%] | inhibition at 10 µM (SK-MEL-28) [%] | inhibition at 10 µM (SF-295) [%] | inhibition at 10 µM (OVCAR-3) [%] | inhibition at 10 µM (MDA-MB-468) [%] | also measured
1 | COc1ccc(NC(=O)Nc2ccc(-c3ccc(Cl)cc3)nc2C)cc1 [Compound 5f, 1-(6-(4-Chlorophenyl)-2-methylpyridin-3-yl)-3-(4-methoxyphenyl) urea] | 12.6 ± 1.08 | 7.9 ± 0.54 | 116 ± 9.61 | 14.7 | 264 to 265 | 26 | < 10 | < 10 | 38 | 23 | < 10 | < 10 | < 10 | < 10 | < 10 | < 10 | 13 | < 10 | < 10 | < 10 | inhibition at 10 µM (OVCAR-8): < 10%; inhibition at 10 µM (RXF 393): 21%; inhibition at 10 µM (U251): < 10%; inhibition at 10 µM (SW-620): < 10%; inhibition at 10 µM (SNB-19): < 10%; inhibition at 10 µM (RPMI-8226): 14%; inhibition at 10 µM (KM12): < 10%; Sensitive cell lines no. [1]: 19
2 | Cc1nc(-c2ccc(Cl)cc2)ccc1NC(=O)Nc1cccc(C(F)(F)F)c1 [Compound 5e, 1-(6-(4-Chlorophenyl)-2-methylpyridin-3-yl)-3-(3-(trifluoromethyl)phenyl)urea] | 7.05 ± 0.72 | 11.9 ± 0.92 | 130 ± 9.22 | 11.0 | 241 to 242 | < 10 | < 10 | < 10 | < 10 | 20 | < 10 | < 10 | < 10 | < 10 | < 10 | < 10 | < 10 | < 10 | < 10 | < 10 | inhibition at 10 µM (OVCAR-8): < 10%; inhibition at 10 µM (RXF 393): < 10%; inhibition at 10 µM (U251): 24%; inhibition at 10 µM (SW-620): 11%; inhibition at 10 µM (SNB-19): < 10%; inhibition at 10 µM (RPMI-8226): 15%; inhibition at 10 µM (KM12): < 10%; Sensitive cell lines no. [1]: 17
3 | Cc1nc(-c2ccc(F)cc2)ccc1NC(=O)Nc1ccc2c(c1)OCO2 [Compound 5d, 1-(Benzo[d][1, 3]dioxol-5-yl)-3-(6-(4-fluorophenyl)-2-methylpyridin-3-yl)urea] | 10.4 ± 0.84 | 12.5 ± 0.85 | 107 ± 7.03 | 8.6 | 254 to 256 | 15 | < 10 | < 10 | 19 | < 10 | < 10 | < 10 | < 10 | < 10 | < 10 | < 10 | < 10 | < 10 | < 10 | < 10 | inhibition at 10 µM (OVCAR-8): < 10%; inhibition at 10 µM (RXF 393): < 10%; inhibition at 10 µM (U251): < 10%; inhibition at 10 µM (SW-620): < 10%; inhibition at 10 µM (SNB-19): < 10%; inhibition at 10 µM (RPMI-8226): < 10%; inhibition at 10 µM (KM12): 11%; Sensitive cell lines no. [1]: 12
4 | Cc1nc(-c2ccc(F)cc2)ccc1NC(=O)Nc1cccc(C(F)(F)F)c1 [Compound 5a, 1-(6-(4-Fluorophenyl)-2-methylpyridin-3-yl)-3-(3-(trifluoromethyl)phenyl)urea] | 5.49 ± 0.3 | 6.83 ± 0.42 | 93.5 ± 5.28 | 13.7 | 223 to 225 | 38 | 20 | < 10 | 32 | 30 | 13 | < 10 | 19 | < 10 | < 10 | 26 | 20 | 17 | > 40 | 32 | inhibition at 10 µM (OVCAR-8): 29%; inhibition at 10 µM (RXF 393): < 10%; inhibition at 10 µM (U251): 31%; inhibition at 10 µM (SW-620): < 10%; inhibition at 10 µM (SNB-19): 15%; inhibition at 10 µM (RPMI-8226): > 40%; inhibition at 10 µM (KM12): 37%; Sensitive cell lines no. [1]: 42; mean % GI ([1]; mean over NCI panel): 22%
